Source: patent publication US20140107316A1, “DRUG DELIVERY CONJUGATES CONTAINING UNNATURAL AMINO ACIDS AND METHODS FOR USING” (priority 2012, published 2014)
Entries after “also recorded” stand apart in the source; their conditions may differ. Read-outs that look alike come from different tables or passages of the source.

Columns and labels:
[1] = system: folate receptor-positive KB cells; details: for In vitro specificity (fold): difference in IC50 between competed and non-competed group
Method: Inhibition of Cellular DNA Synthesis. The compounds described herein were evaluated using an in vitro cytotoxicity assay that predicts the ability of the drug to inhibit the growth of folate receptor-positive KB cells. The compounds were comprised of folate linked to a respective chemotherapeutic drug, as prepared according to the protocols described herein. The KB cells were exposed for up to 7 h at 37° C. to the indicated concentrations of folate-drug conjugate in the absence or presence of at least a 100-fold excess of folic acid. The cells were then rinsed once with fresh culture medium and incubated in fresh culture medium for 72 hours at 37° C. Cell viability was assessed using a ^3H-thymidine incorporation assay.
In vitro test against the various cancer cell lines. Cells are heavily seeded in 24-well Falcon plates and allowed to form nearly confluent monolayers overnight. Thirty minutes prior to the addition of the test compound, spent medium is aspirated from all wells and replaced with fresh folate-deficient RPMI medium (FFRPMI). A subset of wells are designated to receive media containing 100 μM folic acid. The cells in the designated wells are used to determine the targeting specificity. […] Following one rinse with 1 mL of fresh FFRPMI containing 10% heat-inactivated fetal calf serum, each well receives 1 mL of medium containing increasing concentrations of test compound (4 wells per sample) in the presence or absence of 100 μM free folic acid as indicated. Treated cells are pulsed for 2 h at 37° C., rinsed 4 times with 0.5 mL of media, and then chased in 1 mL of fresh medium up to 70 h. Spent medium is aspirated from all wells and replaced with fresh medium containing 5 μCi/mL ^3H-thymidine. Following a further 2 h 37° C. incubation, cells are washed 3 times with 0.5 mL of PBS and then treated with 0.5 mL of ice-cold 5% trichloroacetic acid per well. After 15 min, the trichloroacetic acid is aspirated and the cell material solubilized by the addition of 0.5 mL of 0.25 N sodium hydroxide for 15 min. A 450 μL aliquot of each solubilized sample is transferred to a scintillation vial containing 3 mL of Ecolume scintillation cocktail and then counted in a liquid scintillation counter. Final tabulated results are expressed as the percentage of ^3H-thymidine incorporation relative to untreated controls.
Folate receptor expressing cells. […] EC1456 was evaluated from 0.1-100 nM.

[2] = system: KB tumors; assay: KB tumor assay in nu/nu mice; details: for CR (%) / Cures (%) / PR (%) / Toxicity Avg. Weight Loss / Toxicity Deaths (%): TIW, 2 weeks
Method: Inhibition of Tumor Growth in Mice. Four to seven week-old mice (Balb/c or nu/nu strains) were purchased from Harlan Sprague Dawley, Inc. (Indianapolis, Ind.). Normal rodent chow contains a high concentration of folic acid (6 mg/kg chow); accordingly, mice used were maintained on the folate-free diet (Harlan diet #TD00434) for 1 week before tumor implantation to achieve serum folate concentrations close to the range of normal human serum. For tumor cell inoculation, 1×10^6 M109 cells (Balb/c strain) or 1×10^6 KB cells (nu/nu strain) in 100 μL were injected in the subcutis of the dorsal medial area. Tumors were measured in two perpendicular directions every 2-3 days using a caliper, and their volumes were calculated as 0.5×L×W^2, where L=measurement of longest axis in mm and W=measurement of axis perpendicular to L in mm. […] Dosing solutions were prepared fresh each day in PBS and administered through the lateral tail vein of the mice.
General KB Tumor Assay. The anti-tumor activity of the compounds described herein, when administered intravenously (i.v.) to tumor-bearing animals, was evaluated in nu/nu mice bearing subcutaneous KB tumors. Approximately 8 days post tumor inoculation in the subcutis of the right axilla with 1×10^6 KB cells (average tumor volume at to=50-100 mm^3), in mice (5/group) were injected i.v. three times a week (TIW), for 3 weeks with […] of the drug delivery conjugate or with an equivalent dose volume of PBS (control), unless otherwise indicated. Tumor growth was measured using calipers at 2-day or 3-day intervals in each treatment group. Tumor volumes were calculated using the equation V=a×b^2/2, where “a” is the length of the tumor and “b” is the width expressed in millimeters.
Toxicity as Measured by Weight Loss. The percentage weight change of the mice was determined in mice (5 mice/group) on selected days post-tumor inoculation (PTI), and graphed.
In vivo activity against tumors.

[3] = Maximum tolerated dose (MTD); assay type: in vivo, female Sprague-Dawley rats; details: rat, in vivo, iv, BIW, 2 wks
Source text: Maximum tolerated dose (MTD). […] For Example, EC1456 has a MTD of at least 0.51 μmol/kg and EC0531 has a MTD of 0.33 μmol/kg, […] when administered by i.v., BIW, 2 wks in female Sprague-Dawley rats. Histopathologic changes were not observed with doses of EC1456 at or below the MTD.

[4] = molecular target: T1, folate receptors (FRs) (Homo sapiens, UniProt P15328); assay: Relative affinity assay (3H-folic acid displacement on KB cells); assay type: binding; details: compared to folic acid (relative affinity=1), 10% serum/FDRPMI
T1 construct: FR-positive KB cells were heavily seeded into 24-well cell culture plates; endogenous in cells; host or cells: KB cells (human cervical carcinoma)
Method: Relative Affinity Assay. The affinity for folate receptors (FRs) relative to folate was determined according to a previously described method (Westerhof, G. R., J. H. Schornagel, et al. (1995) Mol. Pharm. 48: 459-471) with slight modification. Briefly, FR-positive KB cells were heavily seeded into 24-well cell culture plates and allowed to adhere to the plastic for 18 h. Spent incubation media was replaced in designated wells with folate-free RPMI (FFRPMI) supplemented with 100 nM ^3H-folic acid in the absence and presence of increasing concentrations of test article or folic acid. Cells were incubated for 60 min at 37° C. and then rinsed 3 times with PBS, pH 7.4. Five hundred microliters of 1% SDS in PBS, pH 7.4, were added per well. Cell lysates were then collected and added to individual vials containing 5 mL of scintillation cocktail, and then counted for radioactivity. Negative control tubes contained only the ^3H-folic acid in FFRPMI (no competitor). Positive control tubes contained a final concentration of 1 mM folic acid, and CPMs measured in these samples (representing non-specific binding of label) were subtracted from all samples.

[5] = system: cells in culture; assay: Cytotoxicity to cells in culture; assay type: cell-based; details: read-out: typical IC50, cells in culture
[6] = system: KB-CR tumors; assay: Cisplatin-resistant KB-CR tumor model; assay type: in vivo; details: 3 mg/kg, twice per week (T/Th), 2 weeks
[7] = read-out: 50% competition, competed group (excess folic acid)
[8] = 1.0 μmol/kg (2 doses), only 2 doses due to toxicity

T1 sequence (P15328 25-234): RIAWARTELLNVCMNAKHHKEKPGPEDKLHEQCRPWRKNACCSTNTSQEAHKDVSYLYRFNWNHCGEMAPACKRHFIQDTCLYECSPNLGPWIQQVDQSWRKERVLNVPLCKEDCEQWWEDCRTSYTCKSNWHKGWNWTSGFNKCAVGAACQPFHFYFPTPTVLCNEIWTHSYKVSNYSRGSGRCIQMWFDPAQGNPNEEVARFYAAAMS

Structure (SMILES)	In vitro specificity (fold) [1] [fold]	IC50 [1, 7] [nM]	IC50 ([1]; read-out: In vitro IC50) [nM]	In vivo activity [2]	Relative Affinity [4]	further results
N=c1[nH]c(N)nc2ncc(CNc3ccc(C(=O)N[C@@H](CCC(=O)NNC(=O)OCCSSC[C@H](NC(=O)[C@H](CCC(=O)NC[C@H](O)[C@@H](O)[C@H](O)[C@H](O)CO)NC(=O)[C@H](CCC(=O)O)NC(=O)[C@H](CCC(=O)NC[C@H](O)[C@@H](O)[C@H](O)[C@H](O)CO)NC(=O)[C@H](CCC(=O)O)NC(=O)[C@H](CCC(=O)NC[C@H](O)[C@@H](O)[C@H](O)[C@H](O)CO)NC(=O)CC[C@H](NC(=O)c4ccc(NCc5cnc6nc(N)[nH]c(=O)c6n5)cc4)C(=O)O)C(=O)O)C(=O)O)cc3)nc12 [EC0531, reference compound]	237	355	1.5	Complete	–	MTD at 2 weeks [3]: 0.33 µmol/kg
CCCC(=O)OCN(C(=O)[C@@H](NC(=O)[C@H]1CCCCN1C)C(C)CC)[C@H](C[C@@H](OC(C)=O)c1nc(C(=O)N[C@@H](Cc2ccc(O)cc2)C[C@H](C)C(=O)NNC(=O)OCCSSC[C@@H](NC(=O)[C@@H](CC(=O)O)NC(=O)[C@@H](CC(=O)O)NC(=O)[C@@H](CCCNC(=N)N)NC(=O)[C@@H](CC(=O)O)NC(=O)CC[C@@H](NC(=O)c2ccc(NCc3cnc4nc(N)[nH]c(=O)c4n3)cc2)C(=O)O)C(=O)O)cs1)C(C)C (some centres unmarked) [EC1299]	778	700	0.9	Complete	0.29	–
CCCC(=O)OCN(C(=O)[C@@H](NC(=O)[C@H]1CCCCN1C)C(C)CC)[C@H](C[C@@H](OC(C)=O)c1nc(C(=O)N[C@@H](Cc2ccc(O)cc2)C[C@H](C)C(=O)NNC(=O)OCCSSC(C)(C)[C@@H](NC(=O)[C@@H](CC(=O)O)NC(=O)[C@@H](CC(=O)O)NC(=O)[C@@H](CCCNC(=N)N)NC(=O)[C@@H](CC(=O)O)NC(=O)CC[C@@H](NC(=O)c2ccc(NCc3cnc4nc(N)[nH]c(=O)c4n3)cc2)C(=O)O)C(=O)O)cs1)C(C)C (some centres unmarked) [EC1393]	300	600	2.2	–	0.25	–
CCCC(=O)OCN(C(=O)[C@@H](NC(=O)[C@H]1CCCCN1C)C(C)CC)[C@H](C[C@@H](OC(C)=O)c1nc(C(=O)N[C@@H](Cc2ccc(O)cc2)C[C@H](C)C(=O)NNC(=O)OCCSSC[C@@H](NC(=O)[C@H](CC(=O)O)NC(=O)[C@H](CC(=O)O)NC(=O)[C@H](CCCNC(=N)N)NC(=O)[C@H](CC(=O)O)NC(=O)CC[C@H](NC(=O)c2ccc(NCc3cnc4nc(N)[nH]c(=O)c4n3)cc2)C(=O)O)C(=O)O)cs1)C(C)C (some centres unmarked) [EC1548]	78	350	4.4	Complete	0.23	–
CCCC(=O)OCN(C(=O)[C@@H](NC(=O)[C@H]1CCCCN1C)C(C)CC)C(C[C@@H](OC(C)=O)c1nc(C(=O)N[C@@H](Cc2ccc(O)cc2)C[C@H](C)C(=O)NNC(=O)OCCSSC[C@@H](NC(=O)[C@@H](CC(=O)O)NC(=O)[C@H](CC(=O)O)NC(=O)[C@H](CCCNC(=N)N)NC(=O)[C@H](CC(=O)O)NC(=O)CC[C@H](NC(=O)c2ccc(NCc3cnc4nc(N)[nH]c(=O)c4n3)cc2)C(=O)O)C(=O)O)cs1)C(C)C (some centres unmarked) [EC1549]	78	350	4.5	Complete	0.90	–
CCCCOCN(C(=O)[C@@H](NC(=O)[C@H]1CCCCN1C)C(C)CC)[C@H](C[C@@H](OC(C)=O)c1nc(C(=O)N[C@@H](Cc2ccc(O)cc2)C[C@H](C)C(=O)NNC(=O)OCCSSC[C@@H](NC(=O)[C@H](CCC(=O)NC[C@H](O)[C@@H](O)[C@H](O)[C@H](O)CO)NC(=O)[C@@H](CCC(=O)O)NC(=O)[C@H](CCC(=O)NC[C@H](O)[C@@H](O)[C@H](O)[C@H](O)CO)NC(=O)[C@@H](CCC(=O)O)NC(=O)[C@H](CCC(=O)NC[C@H](O)[C@@H](O)[C@H](O)[C@H](O)CO)NC(=O)CC[C@@H](NC(=O)c2ccc(NCc3cnc4nc(N)[nH]c(=O)c4n3)cc2)C(=O)O)C(=O)O)cs1)C(C)C (some centres unmarked) [EC1663]	–	–	–	–	–	whole animal toxicity ([2]; 0.5 μmol/kg TIW, 2 wk, compared to PBS control): did not exhibit significant host animal toxicity; also recorded: does not show any evidence of whole animal toxicity; partial responses (test animals) ([2]; intravenously 0.5 μmol/kg TIW, 2 wk): 4/4
CCCC(=O)OCN(C(=O)[C@@H](NC(=O)[C@H]1CCCCN1C)C(C)CC)[C@H](C[C@@H](OC(C)=O)c1nc(C(=O)N[C@@H](Cc2ccc(O)cc2)C[C@H](C)C(=O)NN)cs1)C(C)C (some centres unmarked) [TubBH, tubulysin B hydrazide]	–	–	–	–	–	IC50 [5]: ~1 nM; CR (%) ([2]; 0.5 μmol/kg): 0%; Cures (%) ([2]; 0.5 μmol/kg): 0%; PR (%) ([2]; 0.5 μmol/kg): 0%; Toxicity Avg. Weight Loss ([2]; 0.5 μmol/kg): <5.5%; Toxicity Deaths (%) ([2]; 0.5 μmol/kg): 0%; CR (%) ([2]; 0.75 μmol/kg): 0%; Cures (%) ([2]; 0.75 μmol/kg): 0%; PR (%) ([2]; 0.75 μmol/kg): 0%; Toxicity Avg. Weight Loss ([2]; 0.75 μmol/kg): >10%; Toxicity Deaths (%) ([2]; 0.75 μmol/kg): 20%; CR (%) [2, 8]: 0%; Cures (%) [2, 8]: 0%; PR (%) [2, 8]: 0%; Toxicity Avg. Weight Loss [2, 8]: >15%; Toxicity Deaths (%) [2, 8]: 20%; toxicity in relation to anti-tumor effect in mice ([2]; mouse, in vivo): dose-limiting toxicities in mice at levels that did not produce measurable anti-tumor effect
N.N.[Cl][Pt][Cl] [cisplatin, reference compound]	–	–	–	–	–	partial responses (PRs) [6]: no PRs
